# ChEMBL document CHEMBL1201862, “PubChem BioAssay data set” (2004)
#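 Five compound concentrations were applied to cells in 96-well plates for 48 hours; endpoints were derived by simple linear interpolation of the resulting dose-response curve. GI50 is the concentration that inhibits growth by half.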 Calls of active or inactive are those of the source. No stated cut-off is given here; in the data, active = GI50 up to about 1.1 µM and inactive = higher.
# Tests used:
# Assay in all cases: inhibition of tumour cell growth, NCI panel, 48 h
# IGROV-1 = system: IGROV-1
# MCF7 = system: MCF7
# MDA-MB-231 = system: MDA-MB-231
# Hs-578T = system: Hs-578T
# SW-620 = system: SW-620
# UACC-62 = system: UACC-62
# NCI-H522 = system: NCI-H522
# T47D = system: T47D
# SNB-19 = system: SNB-19
# OVCAR-5 = system: OVCAR-5
# 786-0 = system: 786-0
# NCI/ADR-RES = system: NCI/ADR-RES
# BT-549 = system: BT-549
# TK-10 = system: TK-10
# COLO 205 = system: COLO 205
# HCT-116 = system: HCT-116
# NCI-H226 = system: NCI-H226
# CAKI-1 = system: CAKI-1
# HOP-62 = system: HOP-62
# A498 = system: A498
# SK-MEL-2 = system: SK-MEL-2
# LOX IMVI = system: LOX IMVI
# U-251 = system: U-251
# NCI-H23 = system: NCI-H23
# HCT-15 = system: HCT-15
# SN12C = system: SN12C
# UACC-257 = system: UACC-257
# SR = system: SR
# RXF 393 = system: RXF 393
# ACHN = system: ACHN
# SK-MEL-5 = system: SK-MEL-5
# MDA-N = system: MDA-N
# SK-MEL-28 = system: SK-MEL-28
# SF-295 = system: SF-295
# UO-31 = system: UO-31
# OVCAR-4 = system: OVCAR-4
# HL-60 = system: HL-60
# RPMI-8226 = system: RPMI-8226
# OVCAR-3 = system: OVCAR-3
# HCC 2998 = system: HCC 2998
# HOP-92 = system: HOP-92
# CCRF-CEM = system: CCRF-CEM
# SNB-75 = system: SNB-75
# OVCAR-8 = system: OVCAR-8
# SF-268 = system: SF-268
# HT-29 = system: HT-29
# Malme-3M = system: Malme-3M
# DU-145 = system: DU-145
# PC-3 = system: PC-3
# A549 = system: A549
# SF-539 = system: SF-539
# SK-OV-3 = system: SK-OV-3
# KM12 = system: KM12
# M14 = system: M14
# EKVX = system: EKVX
# MOLT-4 = system: MOLT-4
# K562 = system: K562
# MDA-MB-435 = system: MDA-MB-435
# NCI-H460 = system: NCI-H460
smiles,measurement,setting,value
O=c1[nH]nc(Cc2ccccc2)n1/N=C\CC/C=N\n1c(Cc2ccccc2)n[nH]c1=O,GI50,IGROV-1,14.3 µM (inactive)
same,GI50,MCF7,30 µM (inactive)
same,GI50,MDA-MB-231,61.9 µM (inactive)
same,GI50,Hs-578T,20.2 µM (inactive)
same,GI50,SW-620,36.3 µM (inactive)
same,GI50,UACC-62,16.8 µM (inactive)
same,GI50,NCI-H522,61.1 µM (inactive)
same,GI50,T47D,30.9 µM (inactive)
same,GI50,SNB-19,42.9 µM (inactive)
same,GI50,OVCAR-5,> 100 µM (inactive)
same,GI50,786-0,29.5 µM (inactive)
same,GI50,NCI/ADR-RES,19.4 µM (inactive)
same,GI50,BT-549,25.8 µM (inactive)
same,GI50,TK-10,> 100 µM (inactive)
same,GI50,COLO 205,> 100 µM (inactive)
same,GI50,HCT-116,18.5 µM (inactive)
same,GI50,NCI-H226,33.9 µM (inactive)
same,GI50,CAKI-1,> 100 µM (inactive)
same,GI50,HOP-62,22.1 µM (inactive)
same,GI50,A498,> 100 µM (inactive)
same,GI50,SK-MEL-2,31.3 µM (inactive)
same,GI50,LOX IMVI,15.7 µM (inactive)
same,GI50,U-251,34 µM (inactive)
same,GI50,NCI-H23,23 µM (inactive)
same,GI50,HCT-15,19.9 µM
same,GI50,SN12C,> 100 µM (inactive)
same,GI50,UACC-257,> 100 µM (inactive)
same,GI50,SR,9.77 µM (inactive)
same,GI50,RXF 393,24.3 µM (inactive)
same,GI50,ACHN,49.9 µM (inactive)
same,GI50,SK-MEL-5,29.2 µM (inactive)
same,GI50,MDA-N,44.7 µM (inactive)
same,GI50,SK-MEL-28,30.1 µM (inactive)
same,GI50,SF-295,39.1 µM (inactive)
same,GI50,UO-31,> 100 µM (inactive)
same,GI50,OVCAR-4,48.8 µM (inactive)
same,GI50,HL-60,21.9 µM (inactive)
same,GI50,RPMI-8226,21.5 µM (inactive)
same,GI50,OVCAR-3,61.7 µM (inactive)
same,GI50,HCC 2998,53.8 µM (inactive)
same,GI50,HOP-92,41.8 µM (inactive)
same,GI50,CCRF-CEM,12.5 µM (inactive)
same,GI50,SNB-75,24.4 µM (inactive)
same,GI50,OVCAR-8,23.1 µM (inactive)
same,GI50,SF-268,23.8 µM (inactive)
same,GI50,HT-29,23.4 µM (inactive)
same,GI50,Malme-3M,24.7 µM (inactive)
same,GI50,DU-145,43.5 µM (inactive)
same,GI50,PC-3,37.4 µM (inactive)
same,GI50,A549,> 100 µM (inactive)
same,GI50,SF-539,19 µM (inactive)
same,GI50,SK-OV-3,31.3 µM (inactive)
same,GI50,KM12,> 100 µM (inactive)
same,GI50,M14,44.9 µM (inactive)
same,GI50,EKVX,36.6 µM (inactive)
same,GI50,MOLT-4,31.1 µM (inactive)
same,GI50,K562,36.2 µM (inactive)
same,GI50,MDA-MB-435,34.6 µM (inactive)
Cc1sc2nc3n(c(=O)c2c1C)N=C(c1ccccc1)CS3,GI50,IGROV-1,> 100 µM (inactive)
same,GI50,MCF7,> 100 µM (inactive)
same,GI50,MDA-MB-231,> 100 µM (inactive)
same,GI50,Hs-578T,37.5 µM (inactive)
same,GI50,SW-620,> 100 µM (inactive)
same,GI50,UACC-62,> 100 µM (inactive)
same,GI50,NCI-H522,> 100 µM (inactive)
same,GI50,T47D,> 100 µM (inactive)
same,GI50,OVCAR-5,> 100 µM (inactive)
same,GI50,786-0,47.5 µM (inactive)
same,GI50,NCI/ADR-RES,> 100 µM (inactive)
same,GI50,BT-549,> 100 µM (inactive)
same,GI50,NCI-H460,> 100 µM (inactive)
same,GI50,TK-10,> 100 µM (inactive)
same,GI50,COLO 205,> 100 µM (inactive)
same,GI50,HCT-116,> 100 µM (inactive)
same,GI50,NCI-H226,> 100 µM (inactive)
same,GI50,CAKI-1,> 100 µM (inactive)
same,GI50,HOP-62,48.3 µM (inactive)
same,GI50,A498,> 100 µM (inactive)
same,GI50,LOX IMVI,> 100 µM (inactive)
same,GI50,U-251,> 100 µM (inactive)
same,GI50,NCI-H23,> 100 µM (inactive)
same,GI50,HCT-15,> 100 µM
same,GI50,SN12C,> 100 µM (inactive)
same,GI50,UACC-257,> 100 µM (inactive)
same,GI50,SR,> 100 µM (inactive)
same,GI50,RXF 393,> 100 µM (inactive)
same,GI50,ACHN,> 100 µM (inactive)
same,GI50,SK-MEL-5,> 100 µM (inactive)
same,GI50,MDA-N,> 100 µM (inactive)
same,GI50,SK-MEL-28,> 100 µM (inactive)
same,GI50,SF-295,45.4 µM (inactive)
same,GI50,UO-31,> 100 µM (inactive)
same,GI50,OVCAR-4,> 100 µM (inactive)
same,GI50,HL-60,> 100 µM (inactive)
same,GI50,RPMI-8226,> 100 µM (inactive)
same,GI50,OVCAR-3,> 100 µM (inactive)
same,GI50,HCC 2998,> 100 µM (inactive)
same,GI50,HOP-92,> 100 µM (inactive)
same,GI50,CCRF-CEM,> 100 µM (inactive)
same,GI50,SNB-75,> 100 µM (inactive)
same,GI50,OVCAR-8,> 100 µM (inactive)
same,GI50,SF-268,> 100 µM (inactive)
same,GI50,HT-29,> 100 µM (inactive)
same,GI50,Malme-3M,> 100 µM (inactive)
same,GI50,DU-145,> 100 µM (inactive)
same,GI50,PC-3,> 100 µM (inactive)
same,GI50,A549,> 100 µM (inactive)
same,GI50,SF-539,> 100 µM (inactive)
same,GI50,SK-OV-3,> 100 µM (inactive)
same,GI50,KM12,> 100 µM (inactive)
same,GI50,EKVX,> 100 µM (inactive)
same,GI50,MOLT-4,> 100 µM (inactive)
same,GI50,K562,> 100 µM (inactive)
same,GI50,MDA-MB-435,> 100 µM (inactive)
